Test results as given in article PMC4230996 (Journal of Medicinal Chemistry, 2014).
Blank lines part the entries; values can stand above or below the compound they belong to.

Tests used:
mGlu4 [1] = conditions: read-out: hEC50; human mGlu4 PAM potency; cited from earlier work
mGlu8 = mGlu8 (Homo sapiens, UniProt O00222); test: selectivity test, split luciferase biosensor cAMP assay in transfected CHO cells; format: cell-based; conditions: single concentration 10 μM
mGlu5a = test: selectivity functional assay, IPs accumulation in CHO cells; format: cell-based; conditions: single concentration 10 μM
mGlu1a = test: as above; format: cell-based; conditions: single concentration 10 μM
[2] = stability of 3 in neutral and acidic media by LC–MS; format: physicochemical
human mGlu4 = conditions: read-out: IC50 (binding affinity to mGlu4); human mGlu4, Merck's patent; cited from earlier work
mGlu4 [3] = molecular target: mGlu4 (Rattus norvegicus, UniProt P31423); test: PET imaging of [^18F]3 in rats, baseline and blocking studies; format: in vivo, rat (male Sprague–Dawley); conditions: blocking agent 10 mg/kg injected 5 min before [^18F]3; uptake as area under TAC
Chain of mGlu4 (Rattus norvegicus, UniProt P31423) (P31423 33-912): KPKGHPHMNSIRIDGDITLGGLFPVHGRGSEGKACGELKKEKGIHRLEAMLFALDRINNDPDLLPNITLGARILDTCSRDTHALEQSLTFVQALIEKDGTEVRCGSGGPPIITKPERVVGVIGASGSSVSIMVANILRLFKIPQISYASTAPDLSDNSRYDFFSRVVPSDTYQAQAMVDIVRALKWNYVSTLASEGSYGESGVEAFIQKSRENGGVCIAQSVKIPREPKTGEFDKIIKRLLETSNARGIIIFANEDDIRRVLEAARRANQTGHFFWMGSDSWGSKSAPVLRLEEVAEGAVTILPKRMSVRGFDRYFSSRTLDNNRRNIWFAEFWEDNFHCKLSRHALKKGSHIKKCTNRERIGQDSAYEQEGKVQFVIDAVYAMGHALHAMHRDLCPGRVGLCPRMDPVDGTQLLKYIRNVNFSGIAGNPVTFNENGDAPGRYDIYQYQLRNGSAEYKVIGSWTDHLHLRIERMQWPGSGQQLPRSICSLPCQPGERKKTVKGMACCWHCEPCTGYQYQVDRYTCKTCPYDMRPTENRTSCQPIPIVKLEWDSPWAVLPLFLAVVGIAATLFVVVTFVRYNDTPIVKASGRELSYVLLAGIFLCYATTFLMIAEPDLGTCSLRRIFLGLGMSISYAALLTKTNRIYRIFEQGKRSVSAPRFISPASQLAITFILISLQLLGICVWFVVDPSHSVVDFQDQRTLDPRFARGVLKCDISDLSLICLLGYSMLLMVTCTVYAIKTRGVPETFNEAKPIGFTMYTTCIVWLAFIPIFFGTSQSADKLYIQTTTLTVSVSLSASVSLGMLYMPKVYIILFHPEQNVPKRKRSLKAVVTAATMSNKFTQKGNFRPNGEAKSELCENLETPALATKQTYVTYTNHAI

Chain of mGlu8 (O00222 34-908): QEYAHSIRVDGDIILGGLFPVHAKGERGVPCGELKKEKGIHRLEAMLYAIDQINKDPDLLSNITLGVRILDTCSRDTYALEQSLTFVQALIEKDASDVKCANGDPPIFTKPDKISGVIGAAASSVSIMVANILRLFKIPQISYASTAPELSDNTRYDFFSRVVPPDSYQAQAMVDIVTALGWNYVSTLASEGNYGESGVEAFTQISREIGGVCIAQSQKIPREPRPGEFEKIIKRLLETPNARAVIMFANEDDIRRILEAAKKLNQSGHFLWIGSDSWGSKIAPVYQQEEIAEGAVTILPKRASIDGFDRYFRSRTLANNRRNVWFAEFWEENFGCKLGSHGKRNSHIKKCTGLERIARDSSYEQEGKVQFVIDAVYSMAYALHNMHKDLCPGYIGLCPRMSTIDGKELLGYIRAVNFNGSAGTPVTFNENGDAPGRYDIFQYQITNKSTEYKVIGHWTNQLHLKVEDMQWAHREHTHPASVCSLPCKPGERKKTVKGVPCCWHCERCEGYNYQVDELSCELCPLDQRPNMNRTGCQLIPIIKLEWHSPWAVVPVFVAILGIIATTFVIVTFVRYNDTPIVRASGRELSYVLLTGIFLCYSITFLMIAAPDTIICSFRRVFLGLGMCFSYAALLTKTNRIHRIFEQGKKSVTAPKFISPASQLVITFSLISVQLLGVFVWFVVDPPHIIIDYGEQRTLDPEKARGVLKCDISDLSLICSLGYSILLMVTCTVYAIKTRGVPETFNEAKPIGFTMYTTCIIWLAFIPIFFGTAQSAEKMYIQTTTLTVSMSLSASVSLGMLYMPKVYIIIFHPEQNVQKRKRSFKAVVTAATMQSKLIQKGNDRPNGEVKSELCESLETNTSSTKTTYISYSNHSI

agonist or antagonist activity at mGlu8 (mGlu8): little activity
stability in neutral media ([2]; 0.1 M ammonium formate water–acetonitrile solution): two side products were detected
stability in acidic media ([2]; acidic media): minimal hydrolysis products
SMILES: O=C(Nc1ccc(N2C(=O)c3cccc(F)c3C2=O)c(Cl)c1)c1ccccn1 [Compound 3, N-(3-Chloro-4-(4-fluoro-1,3-dioxoisoindolin-2-yl)phenyl)-2-picolinamide]
agonist or antagonist activity at mGlu5 (mGlu5a): little activity
agonist or antagonist activity at mGlu1 (mGlu1a): little activity

SMILES: Cc1cccc2c1C(=O)N(c1ccc(NC(=O)c3ccccn3)cc1Br)C2=O [Compound 5]
IC50 (human mGlu4): 12 nM
EC50 (mGlu4 [1]): 101 nM

reduced uptake of [^18F]3 in rat brain regions (blocking effect) (mGlu4 [3]): 10–20%
SMILES: O=C(Nc1cccc(OC(F)F)c1)c1ccccn1 [Compound 2, N-(3-(difluoromethoxy)phenyl)-2-picolinamide]
